{"source": "patent USRE50631E1", "about": "“ROR1 antibody immunoconjugates” (VelosBio Inc., priority 2017, dated 2025)", "key": {"A549": {"test_system": "A549", "test": "Cytotoxicity in vitro (CellTiter-Glo viability), A549", "format": "cell-based, human", "settings": "A549 (NSCLC), 72 hours"}, "Hep-3B": {"test_system": "Hep-3B", "test": "Cytotoxicity in vitro (CellTiter-Glo viability), Hep-3B", "format": "cell-based", "settings": "Homo sapiens, Hep3B; Hep-3B (HCC), 72 hours"}, "TMD-8": {"test_system": "TMD-8", "test": "Cytotoxicity in vitro (CellTiter-Glo viability), TMD-8", "format": "cell-based, human", "settings": "TMD-8 (DLBCL), 72 hours", "procedure": "(§5) Cells were grown and distributed into 96-well plates as described in Example 5. Cells in duplicate were incubated with 3-fold serial dilution of a particular immunoconjugate (660, 220, 73.3, 24.4, 8.14, 2.71, 0.91, and 0.3 nM) for 72 hours at 37° C. and 5% CO2. […] After treatment, cell viability was determined as described in Example 5."}, "SKOvr3": {"test_system": "SKOvr3", "test": "Cytotoxicity in vitro (CellTiter-Glo viability), SKOvr3", "format": "cell-based, human", "settings": "SKOvr3 (Ovarian), 72 hours", "procedure": "as §5"}, "TOV112D": {"test_system": "TOV112D", "test": "Cytotoxicity in vitro (CellTiter-Glo viability), TOV112D", "format": "cell-based, human", "settings": "TOV112D (Ovarian), 72 hours", "procedure": "as §5"}, "Bt549": {"test_system": "Bt549", "test": "Cytotoxicity in vitro (CellTiter-Glo viability), Bt549", "format": "cell-based, human", "settings": "Bt549 (TNBC), 72 hours", "procedure": "as §5"}, "DOHH2": {"test_system": "DOHH2", "settings": "read-out: EC50 (nM), cytotoxicity in vitro; DOHH2 (DLBCL), 72 hours", "description": "(§1) ROR1 binding by these conjugates was tested in cell culture to define the potency of various linker-cytotoxic agent combinations. Three different types of cancer cell lines were tested: B-lymphoma cell-lines TMD-8, HBL-1, and DOHH2; triple negative breast cancer cell lines HCC1187, MDA-MB-468, Bt549; and ovarian cancer cell lines A2008, TOV112D, JHOM1, and SKOvr3.\n(§2) Cells were cultured in log phase growth and distributed into 96-well plates. Each cell line was plated at a slightly different cell density, ranging from 5×10^3 to 50×10^4 cells/well. Cells in duplicate were incubated with 3-fold serial dilution of a particular immunoconjugate (10, 3.33, 1.11, 0.37, 0.12, 0.041, 0.014, and 0.0045 μM) for 72 hours at 37° C. and 5% CO2. After treatment, cells were incubated with an equal volume of CellTiter-Glo® reagent (Promega Inc.) for 15 minutes at room temperature and viability was determined by a luminometer. Curves and EC50 values were generated in GraphPad Prism using a sigmoidal dose response non-linear regression fit.\n(§3) Cells were grown and distributed into 96-well plates as described in Example 5. […] After treatment, cell viability was determined as described in Example 5. Cell surface ROR1 expression was assessed by quantitative flow cytometry and ROR1 expression was characterized as MFI>30 or MFI<30 (MFI: mean fluorescent intensity)."}, "MDA-MB-468": {"test_system": "MDA-MB-468", "test": "Cytotoxicity in vitro (CellTiter-Glo viability), MDA-MB-468", "settings": "read-out: EC50 (nM), cytotoxicity in vitro; MDA-MB-468 (TNBC), 72 hours", "description": "as §1, §2, §3"}, "JHOM1": {"test_system": "JHOM1", "test": "Cytotoxicity in vitro (CellTiter-Glo viability), JHOM1", "format": "cell-based, human", "settings": "JHOM1 (Ovarian), 72 hours", "procedure": "as §5"}, "HCC1187": {"test_system": "HCC1187", "test": "Cytotoxicity in vitro (CellTiter-Glo viability), HCC1187", "settings": "read-out: EC50 (nM), cytotoxicity in vitro; HCC1187 (TNBC), 72 hours", "description": "as §1, §2, §3"}, "OvCar4": {"test_system": "OvCar4", "test": "Cytotoxicity in vitro (CellTiter-Glo viability), OvCar4", "format": "cell-based, human", "settings": "OvCar4 (Ovarian), 72 hours"}, "HBL-1": {"test_system": "HBL-1", "test": "Cytotoxicity in vitro (CellTiter-Glo viability), HBL-1", "format": "cell-based, human", "settings": "HBL-1 (DLBCL), 72 hours"}, "Mec-vector": {"test_system": "Mec-vector", "test": "Cytotoxicity in vitro (CellTiter-Glo viability), Mec-vector", "settings": "read-out: EC50 (nM), cytotoxicity in vitro; Mec-vector (CLL), 72 hours", "description": "as §2\n(§4) Cells were grown and distributed into 96-well plates as described in Example 5. Cells in duplicate were incubated with 3-fold serial dilution of a particular immunoconjugate (660, 220, 73.3, 24.4, 8.14, 2.71, 0.91, and 0.3 nM) for 72 hours at 37° C. and 5% CO2. In some experiments, cells were incubated with an immunoconjugate for 96 hours instead of 72 hours (values highlighted with “*”). After treatment, cell viability was determined as described in Example 5. Cell surface ROR1 expression was assessed by quantitative flow cytometry and ROR1 expression was characterized as MFI>30 or MFI<30 (MFI: mean fluorescent intensity). […]"}, "FaDu": {"test_system": "FaDu", "format": "cell-based, human", "settings": "FaDu (HN), 72 hours; read-out: EC50 (nM), cytotoxicity in vitro"}, "U2OS": {"test_system": "U2OS", "format": "cell-based, human", "settings": "U2OS (OS), 72 hours; read-out: EC50 (nM), cytotoxicity in vitro"}, "U2932": {"test_system": "U2932", "test": "Cytotoxicity in vitro (CellTiter-Glo viability), U2932", "format": "cell-based, human", "settings": "U2932 (DLBCL), 72 hours"}, "Hep-G2": {"test_system": "Hep-G2", "format": "cell-based, human", "settings": "Hep-G2 (HCC), 72 hours; read-out: EC50 (nM), cytotoxicity in vitro"}, "DU4475": {"test_system": "DU4475", "test": "Cytotoxicity in vitro (CellTiter-Glo viability), DU4475", "format": "cell-based, human", "settings": "DU4475 (TNBC), 72 hours"}, "HOS": {"test_system": "HOS", "test": "Cytotoxicity in vitro (CellTiter-Glo viability), HOS", "format": "cell-based, human", "settings": "HOS (OS), 72 hours"}, "WSU-DLCL": {"test_system": "WSU-DLCL", "test": "Cytotoxicity in vitro (CellTiter-Glo viability), WSU-DLCL", "format": "cell-based, human", "settings": "WSU-DLCL (DLBCL), 72 hours"}, "ES2": {"test_system": "ES2", "test": "Cytotoxicity in vitro (CellTiter-Glo viability), ES2", "format": "cell-based, human", "settings": "ES2 (Ovarian), 72 hours"}, "Mec-ROR": {"test_system": "Mec-ROR", "test": "Cytotoxicity in vitro (CellTiter-Glo viability), Mec-ROR", "settings": "read-out: EC50 (nM), cytotoxicity in vitro; Mec-ROR (CLL), 72 hours", "description": "as §2, §4"}, "As-PC1": {"test_system": "As-PC1", "test": "Cytotoxicity in vitro (CellTiter-Glo viability), As-PC1", "format": "cell-based, human", "settings": "As-PC1 (Pancreatic), 72 hours"}, "A2780": {"test_system": "A2780", "test": "Cytotoxicity in vitro (CellTiter-Glo viability), A2780", "format": "cell-based, human", "settings": "A2780 (Ovarian), 72 hours"}, "SAOS": {"test_system": "SAOS", "test": "Cytotoxicity in vitro (CellTiter-Glo viability), SAOS", "format": "cell-based, human", "settings": "SAOS (OS), 72 hours"}, "HCC1937": {"test_system": "HCC1937", "test": "Cytotoxicity in vitro (CellTiter-Glo viability), HCC1937", "format": "cell-based, human", "settings": "HCC1937 (TNBC), 72 hours"}, "Bx-PC3": {"test_system": "Bx-PC3", "test": "Cytotoxicity in vitro (CellTiter-Glo viability), Bx-PC3", "format": "cell-based, human", "settings": "Bx-PC3 (Pancreatic), 72 hours"}, "MDA-MB-231": {"test_system": "MDA-MB-231", "test": "Cytotoxicity in vitro (CellTiter-Glo viability), MDA-MB-231", "format": "cell-based, human", "settings": "MDA-MB-231 (TNBC), 72 hours"}, "H460": {"test_system": "H460", "test": "Cytotoxicity in vitro (CellTiter-Glo viability), H460", "format": "cell-based, human", "settings": "H460 (NSCLC), 72 hours"}}, "note": "Values joined by “and” are separate entries in the source; they are usually repeats but may differ in a detail not shown here. Equal values may be shown once. Non-standard residues stand in square brackets, D forms with d. Residues, ends and D or L forms follow the SMILES beside them. *: point of attachment. Dolaproine = CO[C@@H]([C@@H]1CCCN1)[C@@H](C)C(=O)O; Dil = CC[C@H](C)[C@H](NC)[C@@H](CC(=O)O)OC; X1 = C[C@@H](N*)[C@@H](O)c1ccccc1; NMeV = CN[C@H](C(=O)O)C(C)C"}
{"smiles": "CN(C)CCN1C(=O)c2cccc3cc4ccccc4c(c23)C1=O", "note": "[Azonafide, azonafide, reference compound]", "values": [{"measurement": "EC50", "setting": "A549; Homo sapiens", "value": "> 1000", "unit": "nM"}, {"measurement": "EC50", "setting": "Hep-3B", "value": "> 1000", "unit": "nM"}]}
{"smiles": "COc1cc2cc(c1Cl)N(C)C(=O)C[C@H](OC(=O)[C@H](C)N(C)C(=O)CCS)[C@]1(C)O[C@H]1[C@H](C)[C@@H]1C[C@@](O)(NC(=O)O1)[C@H](OC)/C=C/C=C(\\C)C2", "note": "[DM1, N2′-Deacetyl-N2′-(3-mercaptol-oxopropyl)maytansine]", "values": [{"measurement": "EC50", "setting": "TMD-8", "value": 1.4, "unit": "nM"}, {"measurement": "EC50", "setting": "SKOvr3", "value": 9.1, "unit": "nM"}, {"measurement": "EC50", "setting": "TOV112D", "value": 2.4, "unit": "nM"}, {"measurement": "EC50", "setting": "Bt549", "value": 0.047, "unit": "nM"}, {"measurement": "EC50", "setting": "DOHH2", "value": 1.78, "unit": "nM"}, {"measurement": "EC50", "setting": "MDA-MB-468", "value": 15.2, "unit": "nM"}, {"measurement": "EC50", "setting": "JHOM1", "value": 0.01, "unit": "nM"}, {"measurement": "EC50", "setting": "HCC1187", "value": 3.9, "unit": "nM"}, {"measurement": "EC50", "setting": "OvCar4", "value": "> 1000", "unit": "nM"}, {"measurement": "EC50", "setting": "HBL-1", "value": 9.3, "unit": "nM"}]}
{"smiles": "CC[C@H](C)[C@@H]([C@@H](CC(=O)N1CCC[C@H]1[C@H](OC)[C@@H](C)C(=O)N[C@H](C)[C@@H](O)c1ccccc1)OC)N(C)C(=O)[C@@H](NC(=O)[C@@H](NC)C(C)C)C(C)C", "note": "[MMAE, monomethyl auristatin E, reference compound] (H-[NMeV]V[Dil][Dolaproine]-X1)", "values": [{"measurement": "EC50", "setting": "SKOvr3", "value": 0.01, "unit": "nM"}, {"measurement": "EC50", "setting": "Mec-vector", "value": 0.5, "unit": "nM"}, {"measurement": "EC50", "setting": "FaDu", "value": "> 1000", "unit": "nM"}, {"measurement": "EC50", "setting": "U2OS", "value": 1.2, "unit": "nM"}, {"measurement": "EC50", "setting": "TOV112D", "value": 0.04, "unit": "nM"}, {"measurement": "EC50", "setting": "A549", "value": 0.06, "unit": "nM"}, {"measurement": "EC50", "setting": "Bt549", "value": 0.047, "unit": "nM"}, {"measurement": "EC50", "setting": "DOHH2", "value": 0.007, "unit": "nM"}, {"measurement": "EC50", "setting": "U2932", "value": 0.006, "unit": "nM"}, {"measurement": "EC50", "setting": "Hep-G2", "value": "> 1000", "unit": "nM"}, {"measurement": "EC50", "setting": "DU4475", "value": 2.5, "unit": "nM"}, {"measurement": "EC50", "setting": "JHOM1", "value": 0.01, "unit": "nM"}, {"measurement": "EC50", "setting": "HOS", "value": 0.06, "unit": "nM"}, {"measurement": "EC50", "setting": "WSU-DLCL", "value": 0.06, "unit": "nM"}, {"measurement": "EC50", "setting": "ES2", "value": 1.1, "unit": "nM"}, {"measurement": "EC50", "setting": "Mec-ROR", "value": 0.6, "unit": "nM"}, {"measurement": "EC50", "setting": "As-PC1", "value": 0.04, "unit": "nM"}, {"measurement": "EC50", "setting": "OvCar4", "value": 24.2, "unit": "nM"}, {"measurement": "EC50", "setting": "A2780", "value": 0.08, "unit": "nM"}, {"measurement": "EC50", "setting": "SAOS", "value": 0.05, "unit": "nM"}, {"measurement": "EC50", "setting": "HCC1937", "value": "> 1000", "unit": "nM"}, {"measurement": "EC50", "setting": "Bx-PC3", "value": 0.04, "unit": "nM"}]}
{"smiles": "COc1cccc2c1C(=O)c1c(O)c3c(c(O)c1C2=O)C[C@@](O)(C(=O)CO)C[C@@H]3O[C@H]1C[C@H]2[C@H](O[C@@H]3[C@@H](OC)OCCN32)[C@H](C)O1", "note": "[PNU-159682, reference compound]", "values": [{"measurement": "EC50", "setting": "MDA-MB-231", "value": 0.005, "unit": "nM"}, {"measurement": "EC50", "setting": "H460", "value": "0.001 nM and 0.002 nM"}]}
